Test results as given in patent US8377691B2 (priority 2006, dated 2013).
“Also recorded” adds a separate entry of the source.

System: A/M2 VN1194
Type: biochemical

SMILES | H+ transport across VLP membranes (fluorescence)
CC(N)C12CC3CC(CC(C3)C1)C2 (centres unmarked) [rimantadine] | exerted no effect
NC12CC3CC(CC(C3)C1)C2 [amantadine] | exerted no effect; also recorded: did not, however, influence
